Data from ChEMBL document CHEMBL5291721, “A preclinical secondary pharmacology resource illuminates target-adverse drug reaction associations of marketed drugs” (Nat Commun, 2023).
Values belong to the compound of their own block, whether it stands above or below them.

Assays:
[1] = molecular target: Beta-1 adrenergic receptor (Homo sapiens, UniProt P08588); assay type: functional, cell-based
[2] = molecular target: T1, Muscarinic acetylcholine receptor M5 (Homo sapiens, UniProt P08912)
T1 sequence (P08912 whole entry): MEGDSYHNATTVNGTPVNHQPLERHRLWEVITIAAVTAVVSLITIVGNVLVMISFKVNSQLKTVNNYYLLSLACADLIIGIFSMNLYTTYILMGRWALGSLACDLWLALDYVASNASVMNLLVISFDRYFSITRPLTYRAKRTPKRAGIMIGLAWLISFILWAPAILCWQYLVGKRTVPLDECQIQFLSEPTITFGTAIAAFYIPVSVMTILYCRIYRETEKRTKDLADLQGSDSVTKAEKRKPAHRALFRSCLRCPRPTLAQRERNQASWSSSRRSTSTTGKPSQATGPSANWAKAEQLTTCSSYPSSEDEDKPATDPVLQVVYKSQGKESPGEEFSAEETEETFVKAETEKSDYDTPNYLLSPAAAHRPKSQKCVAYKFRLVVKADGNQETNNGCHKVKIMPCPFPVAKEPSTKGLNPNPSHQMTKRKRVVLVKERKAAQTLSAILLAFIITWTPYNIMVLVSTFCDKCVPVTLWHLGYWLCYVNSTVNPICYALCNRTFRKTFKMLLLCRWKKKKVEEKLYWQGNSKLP

[3] = molecular target: Rod cGMP-specific 3',5'-cyclic phosphodiesterase subunit alpha (Homo sapiens, UniProt P16499); assay type: functional
Substance-K receptor = molecular target: T2, Substance-K receptor (Homo sapiens, UniProt P21452)
T2 sequence (P21452 whole entry): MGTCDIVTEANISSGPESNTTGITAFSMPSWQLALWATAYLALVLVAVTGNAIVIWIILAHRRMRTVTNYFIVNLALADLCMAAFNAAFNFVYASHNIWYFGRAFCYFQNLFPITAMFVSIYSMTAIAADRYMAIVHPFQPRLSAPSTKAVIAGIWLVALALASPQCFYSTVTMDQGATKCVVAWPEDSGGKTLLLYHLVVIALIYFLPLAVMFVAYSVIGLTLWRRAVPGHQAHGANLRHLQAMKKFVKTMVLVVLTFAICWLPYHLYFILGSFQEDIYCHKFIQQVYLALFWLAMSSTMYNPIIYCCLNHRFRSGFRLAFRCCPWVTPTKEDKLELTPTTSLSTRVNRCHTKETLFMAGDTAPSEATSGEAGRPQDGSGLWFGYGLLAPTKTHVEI

D(4) dopamine receptor = molecular target: T3, D(4) dopamine receptor (Homo sapiens, UniProt P21917)
T3 sequence (P21917 whole entry): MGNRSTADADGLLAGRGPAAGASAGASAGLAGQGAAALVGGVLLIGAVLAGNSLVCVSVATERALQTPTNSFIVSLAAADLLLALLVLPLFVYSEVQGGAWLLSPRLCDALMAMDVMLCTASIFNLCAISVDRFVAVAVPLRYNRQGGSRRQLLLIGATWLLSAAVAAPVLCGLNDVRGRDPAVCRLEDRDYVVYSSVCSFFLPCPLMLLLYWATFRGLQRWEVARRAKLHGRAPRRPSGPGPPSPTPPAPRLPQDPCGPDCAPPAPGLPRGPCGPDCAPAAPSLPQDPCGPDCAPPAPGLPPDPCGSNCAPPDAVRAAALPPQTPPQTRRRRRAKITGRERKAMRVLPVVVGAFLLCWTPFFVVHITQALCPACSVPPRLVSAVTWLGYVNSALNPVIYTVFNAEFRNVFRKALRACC

D(1B) dopamine receptor = D(1B) dopamine receptor (Homo sapiens, UniProt P21918)
[4] = molecular target: 5-hydroxytryptamine receptor 5A (Homo sapiens, UniProt P47898)
[5] = molecular target: Gamma-aminobutyric acid type B receptor subunit 1 (Homo sapiens, UniProt Q9UBS5)
Androgen receptor = molecular target: T4, Androgen receptor (Rattus norvegicus, UniProt P15207); assay type: functional
T4 sequence (P15207 whole entry): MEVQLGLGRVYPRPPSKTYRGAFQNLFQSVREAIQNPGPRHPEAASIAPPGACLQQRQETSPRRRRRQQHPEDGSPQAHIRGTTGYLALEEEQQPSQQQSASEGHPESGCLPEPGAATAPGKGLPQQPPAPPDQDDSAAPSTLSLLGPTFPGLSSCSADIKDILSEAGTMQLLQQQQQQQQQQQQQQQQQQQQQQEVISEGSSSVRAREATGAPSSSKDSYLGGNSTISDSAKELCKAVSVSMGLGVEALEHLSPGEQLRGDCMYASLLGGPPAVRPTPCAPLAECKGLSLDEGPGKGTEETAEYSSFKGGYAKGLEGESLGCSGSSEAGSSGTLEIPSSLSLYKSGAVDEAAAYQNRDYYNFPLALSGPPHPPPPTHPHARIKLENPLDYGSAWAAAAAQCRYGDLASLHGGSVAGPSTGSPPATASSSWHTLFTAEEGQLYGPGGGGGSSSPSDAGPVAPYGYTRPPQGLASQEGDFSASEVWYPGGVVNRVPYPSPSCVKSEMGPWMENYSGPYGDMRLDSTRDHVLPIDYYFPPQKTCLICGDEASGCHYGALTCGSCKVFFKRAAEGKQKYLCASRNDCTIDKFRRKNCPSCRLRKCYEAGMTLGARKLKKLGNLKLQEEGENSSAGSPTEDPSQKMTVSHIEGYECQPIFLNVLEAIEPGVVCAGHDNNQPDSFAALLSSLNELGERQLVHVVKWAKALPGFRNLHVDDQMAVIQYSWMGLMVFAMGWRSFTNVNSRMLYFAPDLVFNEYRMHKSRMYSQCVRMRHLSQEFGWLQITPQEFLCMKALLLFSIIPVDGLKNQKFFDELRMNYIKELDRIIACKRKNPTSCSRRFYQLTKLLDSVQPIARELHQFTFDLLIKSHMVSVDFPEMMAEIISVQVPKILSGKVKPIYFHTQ
Also: assay procedure not described here.

Chain of Beta-1 adrenergic receptor (P08588 whole entry): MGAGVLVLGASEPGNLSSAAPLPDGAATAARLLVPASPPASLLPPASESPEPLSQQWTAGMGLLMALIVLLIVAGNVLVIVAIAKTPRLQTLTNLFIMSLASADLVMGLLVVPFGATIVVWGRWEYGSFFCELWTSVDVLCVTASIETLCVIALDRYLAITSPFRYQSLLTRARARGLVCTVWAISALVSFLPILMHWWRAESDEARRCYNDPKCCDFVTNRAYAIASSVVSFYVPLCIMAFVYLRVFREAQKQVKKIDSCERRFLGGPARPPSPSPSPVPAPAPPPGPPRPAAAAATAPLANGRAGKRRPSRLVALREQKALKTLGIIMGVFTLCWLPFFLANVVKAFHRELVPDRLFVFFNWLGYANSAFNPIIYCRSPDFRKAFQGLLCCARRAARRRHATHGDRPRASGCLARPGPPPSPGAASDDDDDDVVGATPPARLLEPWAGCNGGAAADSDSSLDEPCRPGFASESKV
Chain of Gamma-aminobutyric acid type B receptor subunit 1 (Q9UBS5 whole entry): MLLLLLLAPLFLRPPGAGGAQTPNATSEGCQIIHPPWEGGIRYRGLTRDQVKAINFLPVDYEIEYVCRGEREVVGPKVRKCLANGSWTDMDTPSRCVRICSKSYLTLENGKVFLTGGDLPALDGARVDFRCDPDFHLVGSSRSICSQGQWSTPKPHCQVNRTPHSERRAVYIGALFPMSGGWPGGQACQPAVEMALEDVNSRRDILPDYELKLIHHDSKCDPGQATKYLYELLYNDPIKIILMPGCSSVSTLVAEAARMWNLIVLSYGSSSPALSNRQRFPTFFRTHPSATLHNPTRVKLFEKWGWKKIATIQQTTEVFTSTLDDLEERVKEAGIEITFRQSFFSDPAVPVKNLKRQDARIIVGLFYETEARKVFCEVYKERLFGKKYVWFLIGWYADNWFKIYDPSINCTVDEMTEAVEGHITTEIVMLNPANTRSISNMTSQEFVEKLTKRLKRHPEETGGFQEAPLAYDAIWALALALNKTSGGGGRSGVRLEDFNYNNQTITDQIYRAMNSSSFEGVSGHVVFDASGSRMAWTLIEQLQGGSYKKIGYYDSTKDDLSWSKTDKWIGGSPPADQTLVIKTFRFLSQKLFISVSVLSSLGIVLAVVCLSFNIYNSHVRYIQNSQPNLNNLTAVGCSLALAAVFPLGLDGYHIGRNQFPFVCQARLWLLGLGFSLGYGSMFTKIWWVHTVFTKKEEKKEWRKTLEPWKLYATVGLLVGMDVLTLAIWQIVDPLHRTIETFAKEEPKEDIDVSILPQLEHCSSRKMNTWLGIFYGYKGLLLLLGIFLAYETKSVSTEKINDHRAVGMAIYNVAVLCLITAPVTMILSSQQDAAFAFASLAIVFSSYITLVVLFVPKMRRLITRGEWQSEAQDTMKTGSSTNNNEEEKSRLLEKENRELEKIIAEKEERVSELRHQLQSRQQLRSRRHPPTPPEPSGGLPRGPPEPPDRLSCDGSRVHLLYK
Chain of 5-hydroxytryptamine receptor 5A (P47898 whole entry): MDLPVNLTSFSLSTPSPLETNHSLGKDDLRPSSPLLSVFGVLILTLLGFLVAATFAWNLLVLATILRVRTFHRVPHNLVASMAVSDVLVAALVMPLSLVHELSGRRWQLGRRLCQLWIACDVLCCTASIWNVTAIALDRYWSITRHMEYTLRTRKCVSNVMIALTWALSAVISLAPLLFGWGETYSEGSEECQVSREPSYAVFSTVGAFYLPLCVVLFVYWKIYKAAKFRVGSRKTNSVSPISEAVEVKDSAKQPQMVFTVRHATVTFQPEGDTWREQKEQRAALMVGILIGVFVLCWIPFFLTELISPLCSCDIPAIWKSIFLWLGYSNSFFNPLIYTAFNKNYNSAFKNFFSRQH
Chain of D(1B) dopamine receptor (P21918 whole entry): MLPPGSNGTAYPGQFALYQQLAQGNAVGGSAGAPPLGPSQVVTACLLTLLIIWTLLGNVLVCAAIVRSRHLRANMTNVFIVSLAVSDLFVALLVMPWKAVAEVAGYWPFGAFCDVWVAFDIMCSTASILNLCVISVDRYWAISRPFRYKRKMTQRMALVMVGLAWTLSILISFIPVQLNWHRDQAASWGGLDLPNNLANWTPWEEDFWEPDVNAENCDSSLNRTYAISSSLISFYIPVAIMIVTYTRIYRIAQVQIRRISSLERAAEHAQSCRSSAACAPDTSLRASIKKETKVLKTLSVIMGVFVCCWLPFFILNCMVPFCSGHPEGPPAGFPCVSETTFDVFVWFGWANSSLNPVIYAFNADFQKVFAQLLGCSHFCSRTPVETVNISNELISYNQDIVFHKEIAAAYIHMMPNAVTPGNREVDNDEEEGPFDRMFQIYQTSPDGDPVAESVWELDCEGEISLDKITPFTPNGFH
Chain of Rod cGMP-specific 3',5'-cyclic phosphodiesterase subunit alpha (P16499 whole entry): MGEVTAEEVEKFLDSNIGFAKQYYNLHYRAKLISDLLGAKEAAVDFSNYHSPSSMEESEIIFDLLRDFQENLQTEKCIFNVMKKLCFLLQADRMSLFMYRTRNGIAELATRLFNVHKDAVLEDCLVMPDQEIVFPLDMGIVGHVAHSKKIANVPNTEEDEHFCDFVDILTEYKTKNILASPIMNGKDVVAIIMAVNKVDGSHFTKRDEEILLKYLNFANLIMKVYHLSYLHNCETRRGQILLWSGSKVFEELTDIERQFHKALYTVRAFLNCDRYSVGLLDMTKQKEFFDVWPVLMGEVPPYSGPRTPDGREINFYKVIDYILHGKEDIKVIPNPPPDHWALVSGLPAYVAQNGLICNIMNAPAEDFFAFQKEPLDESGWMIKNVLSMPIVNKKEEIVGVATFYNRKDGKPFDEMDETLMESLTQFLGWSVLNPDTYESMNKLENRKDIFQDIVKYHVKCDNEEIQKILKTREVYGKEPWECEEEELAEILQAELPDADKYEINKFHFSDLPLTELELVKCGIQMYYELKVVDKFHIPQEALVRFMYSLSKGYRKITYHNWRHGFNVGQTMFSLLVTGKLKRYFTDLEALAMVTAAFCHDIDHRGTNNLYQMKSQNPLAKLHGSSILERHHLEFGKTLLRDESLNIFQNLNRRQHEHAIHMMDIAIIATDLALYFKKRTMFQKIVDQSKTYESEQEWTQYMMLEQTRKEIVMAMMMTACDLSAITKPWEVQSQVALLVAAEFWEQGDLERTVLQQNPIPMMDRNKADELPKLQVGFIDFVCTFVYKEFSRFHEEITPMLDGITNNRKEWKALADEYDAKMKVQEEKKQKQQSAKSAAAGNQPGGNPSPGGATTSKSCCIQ

Compound: O=C(Nc1ccccc1)OCC(CN1CCCCC1)OC(=O)Nc1ccccc1 (stereo not given) [DIPERODON]
AC50 [2]: > 10 µM | AC50 [3]: > 10 µM | AC50 (Substance-K receptor): > 10 µM | AC50 (D(4) dopamine receptor): 5.2 µM | AC50 (D(1B) dopamine receptor): > 10 µM | AC50 [4]: > 10 µM

Compound: O=C1CCC(N2C(=O)c3ccccc3C2=O)C(=O)N1 (stereo not given) [THALIDOMIDE]
AC50 [5]: > 10 µM | AC50 (D(4) dopamine receptor): > 10 µM

Compound: CS(=O)(=O)Nc1cc2occ(NC=O)c(=O)c2cc1Oc1ccccc1 [IGURATIMOD]
AC50 (Androgen receptor): > 30 µM

Next, values leading:

AC50 [1]: > 30 µM
Compound: CN(CCCN1c2ccccc2CCc2ccccc21)CC(=O)c1ccc(Cl)cc1 [LOFEPRAMINE]

AC50 [2]: 0.589 µM | AC50 [3]: > 10 µM | AC50 (Substance-K receptor): > 10 µM | AC50 (D(4) dopamine receptor): 0.551 µM | AC50 (D(1B) dopamine receptor): 5.78 µM | AC50 [4]: 0.823 µM
Compound: CN(C)CCCN1c2ccccc2Sc2ccccc21 [PROMAZINE]

AC50 [5]: > 10 µM | AC50 (D(4) dopamine receptor): > 10 µM
Compound: O=P(O)(O)C(O)(Cc1cccnc1)P(=O)(O)O [RISEDRONIC ACID]

AC50 [1]: > 30 µM
Compound: CC(C(O)c1ccc(O)cc1)N1CCC(Cc2ccccc2)CC1 (stereo not given) [IFENPRODIL]

AC50 (Androgen receptor): > 30 µM
Compound: CCCC(=O)N1CCCN(c2nc(N)c3cc(OC)c(OC)cc3n2)CC1 [BUNAZOSIN]
